Source: ChEMBL document CHEMBL1131353, “Structurally similar small molecule photoaffinity CCK-A agonists and antagonists as novel tools for directly probing 7TM receptors-ligand interactions” (Bioorg Med Chem Lett, 1998)

Assays:
[1] = target: T1, Cholecystokinin receptor type A (Rattus norvegicus, UniProt P30551); assay: Displacement of 125I]-D-Tyr-Gly-[(Nle28,31)CCK-26-33] from rat cell membrane Cholecystokinin type A receptor
T1 sequence (P30551 whole entry): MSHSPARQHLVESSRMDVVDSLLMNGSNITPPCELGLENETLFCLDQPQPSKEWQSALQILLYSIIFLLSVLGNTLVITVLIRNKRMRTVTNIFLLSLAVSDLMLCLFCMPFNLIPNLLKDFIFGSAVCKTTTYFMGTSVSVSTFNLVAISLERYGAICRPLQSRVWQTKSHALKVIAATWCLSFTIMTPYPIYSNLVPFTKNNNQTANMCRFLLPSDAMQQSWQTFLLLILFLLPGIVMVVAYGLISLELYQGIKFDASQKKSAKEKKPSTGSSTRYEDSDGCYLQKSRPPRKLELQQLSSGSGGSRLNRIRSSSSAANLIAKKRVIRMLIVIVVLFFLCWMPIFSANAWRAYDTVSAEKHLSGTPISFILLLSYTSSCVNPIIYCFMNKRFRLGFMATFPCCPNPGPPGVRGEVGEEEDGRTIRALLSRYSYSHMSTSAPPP

[2] = target: T2, Cholecystokinin receptor type A (Rattus norvegicus) (UniProt P30551); assay: In vitro efficacy was measured in rat Cholecystokinin type A receptor at 1.0 uM
T2 sequence (whole entry): T1 sequence (P30551 whole entry)

Rattus norvegicus [3] = species on record: Rattus norvegicus; assay: Compound was tested in vitro for its ability to stimulate dispersed rat pancreatic acini to secrete amylase into the medium using CCK-8 as an agonist control; assay type: functional
Rattus norvegicus [4] = species on record: Rattus norvegicus; assay: Compound was tested in vitro for its ability to stimulate dispersed rat pancreatic acini to secrete amylase into the medium using CCK-8 as an agonist control; no activity detected at maximum concentration; assay type: functional

| Structure (SMILES) | IC50 [1] [nM] | Efficacy [2] [%] | EC50 (Rattus norvegicus [3]) [nM] | EC50 (Rattus norvegicus [4]) |
| --- | --- | --- | --- | --- |
| COc1ccc(N(C(=O)CN2C(=O)C(NC(=O)Nc3cccc(C4(C(F)(F)F)N=N4)c3)C(=O)N(c3ccccc3)c3ccccc32)C(C)C)cc1 (centres undefined) | 440 | 75 | 600 | – |
| COc1ccc(N(C)C(=O)CN2C(=O)C(NC(=O)Nc3ccccc3)C(=O)N(c3ccccc3)c3ccccc32)cc1 (centres undefined) | 390 | – | – | – |
| CSCC[C@H](NC(=O)[C@H](Cc1ccc(OS(=O)(=O)O)cc1)NC(=O)[C@@H](N)CC(=O)O)C(=O)NCC(=O)N[C@@H](Cc1c[nH]c2ccccc12)C(=O)N[C@@H](CCSC)C(=O)N[C@@H](CC(=O)O)C(=O)N[C@@H](Cc1ccccc1)C(N)=O [SINCALIDE] | – | – | 0.014 | – |
| CN(C(=O)CN1C(=O)C(NC(=O)Nc2cccc(C3(C(F)(F)F)N=N3)c2)C(=O)N(c2ccccc2)c2ccccc21)c1ccccc1 (centres undefined) | 310 | – | – | Not Active |
| CC(C)N(C(=O)CN1C(=O)C(NC(=O)Nc2cccc(C(=O)c3ccccc3)c2)C(=O)N(c2ccccc2)c2ccccc21)c1ccccc1 (centres undefined) | 160 | 64 | 730 | – |
| COc1ccc(N(C)C(=O)CN2C(=O)C(NC(=O)Nc3cccc(C(=O)c4ccccc4)c3)C(=O)N(c3ccccc3)c3ccccc32)cc1 (centres undefined) | 350 | – | – | Not Active |
| CN(C(=O)CN1C(=O)C(NC(=O)Nc2cccc(C(=O)c3ccccc3)c2)C(=O)N(c2ccccc2)c2ccccc21)c1ccccc1 (centres undefined) | 290 | – | – | – |
| CC(C)N(C(=O)CN1C(=O)C(NC(=O)Nc2cccc(C3(C(F)(F)F)N=N3)c2)C(=O)N(c2ccccc2)c2ccccc21)c1ccccc1 (centres undefined) | 1300 | 47 | 930 | – |
| COc1ccc(N(C(=O)CN2C(=O)C(NC(=O)Nc3ccccc3)C(=O)N(c3ccccc3)c3ccccc32)C(C)C)cc1 (centres undefined) | 50 | – | – | – |
| COc1ccc(N(C(=O)CN2C(=O)C(NC(=O)Nc3cccc(C(=O)c4ccccc4)c3)C(=O)N(c3ccccc3)c3ccccc32)C(C)C)cc1 (centres undefined) | 80 | 68 | 460 | – |
| COc1ccc(N(C)C(=O)CN2C(=O)C(NC(=O)Nc3cccc(C4(C(F)(F)F)N=N4)c3)C(=O)N(c3ccccc3)c3ccccc32)cc1 (centres undefined) | 410 | – | – | Not Active |
| CC(C)N(C(=O)CN1C(=O)C(NC(=O)Nc2ccccc2)C(=O)N(c2ccccc2)c2ccccc21)c1ccccc1 (centres undefined) | – | 83 | 40 | – |
